From ChEMBL document CHEMBL1123731, “Synthesis and antiarrhythmic properties of novel 3-selena-7-azabicyclo[3.3.1]nonanes and derivatives. Single-crystal X-ray diffraction analysis of 7-benzyl-3-selena-7-azabicyclo[3.3.1]nonan-9-one and 7-benzyl-3-selena-7-azabicyclo[3.3.1]nonane hydroperchlorate” (1987)
Several values for one entry are separate records, joined by “and”; a condition that tells them apart may be missing. Equal entries are not always repeated. Activity calls are given as the source filed them. The calls are words filed in the database; no cut-off is given here.

Tests used:
Canis familiaris [1] = organism: Canis familiaris; assay: Relative effect on exacerbation of ventricular tachycardia in dogs; exacerbation of VT; format: functional, organism-based; conditions: Canis lupus familiaris; Cardiac ventricle
Canis familiaris [2] = organism: Canis familiaris; assay: Relative effect on mean blood pressure in dogs; NC=no change; format: functional, organism-based; conditions: Canis lupus familiaris
Canis familiaris [3] = organism: Canis familiaris; assay: Relative effect on normal sinus rate in dogs; NC=no change; format: functional, organism-based; conditions: Canis lupus familiaris
Canis familiaris [4] = assay: Tested for Norman sinus rhythm in dogs at a dose of 3 mg/kg Expt-1; format: functional, Canis lupus familiaris
Canis familiaris [5] = assay: Tested for mean blood pressure with ventricular tachycardia in dogs at a dose of 6 mg/kg Expt-2; format: functional, Canis lupus familiaris
Canis familiaris [6] = assay: Tested for mean blood pressure without ventricular tachycardia in dogs at a dose of 3 mg/kg Expt-2; format: functional, Canis lupus familiaris
Canis familiaris [7] = assay: Tested for mean blood pressure without ventricular tachycardia in dogs at a dose of 6 mg/kg Expt-2; format: functional, Canis lupus familiaris
Canis familiaris [8] = assay: Tested for mean blood pressure without ventricular tachycardia in dogs at a dose of 6 mg/kg Expt-1; format: functional, Canis lupus familiaris
Canis familiaris [9] = assay: Tested for mean blood pressure without ventricular tachycardia in dogs at a dose of 3 mg/kg Expt-1; format: functional, Canis lupus familiaris
Canis familiaris [10] = assay: Tested for Sustained ventricular tachycardia in dogs at a dose of 3 mg/kg Expt-2; format: functional, Canis lupus familiaris, Cardiac ventricle
Canis familiaris [11] = assay: Tested for mean blood pressure with ventricular tachycardia in dogs at a dose of 3 mg/kg Expt-2; format: functional, Canis lupus familiaris
Canis familiaris [12] = organism: Canis familiaris; assay: Relative effect on abolition of ventricular tachycardia in dogs; no abolition of VT; format: functional, organism-based; conditions: Canis lupus familiaris; Cardiac ventricle
Canis familiaris [13] = assay: Tested for Sustained ventricular tachycardia in dogs at a dose of 6 mg/kg Expt-2; format: functional, Canis lupus familiaris, Cardiac ventricle
Canis familiaris [14] = organism: Canis familiaris; assay: Relative effect on slowing of ventricular tachycardia in dogs; slowing of VT; format: functional, organism-based; conditions: Canis lupus familiaris; Cardiac ventricle
Canis familiaris [15] = assay: Tested for Norman sinus rhythm in dogs at a dose of 6 mg/kg Expt-2; format: functional, Canis lupus familiaris
Canis familiaris [16] = assay: Tested for Sustained ventricular tachycardia in dogs at a dose of 3 mg/kg Expt-1; format: functional, Canis lupus familiaris, Cardiac ventricle
Canis familiaris [17] = assay: Tested for Sustained ventricular tachycardia in dogs at a dose of 6 mg/kg Expt-1; format: functional, Canis lupus familiaris, Cardiac ventricle
Canis familiaris [18] = assay: Tested for mean blood pressure with ventricular tachycardia in dogs at a dose of 6 mg/kg Expt-1; format: functional, Canis lupus familiaris
Canis familiaris [19] = assay: Tested for Norman sinus rhythm in dogs at a dose of 6 mg/kg Expt-1; format: functional, Canis lupus familiaris
Canis familiaris [20] = assay: Tested for Norman sinus rhythm in dogs at a dose of 3 mg/kg Expt-2; format: functional, Canis lupus familiaris
Canis familiaris [21] = assay: Tested for Norman sinus rhythm in dogs at a dose of 3 mg/kg Expt-3; format: functional, Canis lupus familiaris
Canis familiaris [22] = organism: Canis familiaris; assay: Relative effect on mean blood pressure in dogs; moderate increase by 16% in mean BP; format: functional, organism-based; conditions: Canis lupus familiaris
Canis familiaris [23] = assay: Tested for Norman sinus rhythm in dogs at a dose of 6 mg/kg; format: functional, Canis lupus familiaris; design: unit not given beside the values
Canis familiaris [24] = organism: Canis familiaris; assay: Relative effect on abolition of ventricular tachycardia in dogs; abolition of VT; format: functional, organism-based; conditions: Canis lupus familiaris; Cardiac ventricle
Canis familiaris [25] = assay: Tested for mean blood pressure without ventricular tachycardia in dogs at a dose of 6 mg/kg expt-3; format: functional, Canis lupus familiaris
Canis familiaris [26] = assay: Tested for mean blood pressure without ventricular tachycardia in dogs at a dose of 3 mg/kg expt-2; format: functional, Canis lupus familiaris
Canis familiaris [27] = organism: Canis familiaris; assay: Relative effect on normal sinus rate in dogs;NC=no change; format: functional, organism-based; conditions: Canis lupus familiaris
Canis familiaris [28] = assay: Tested for mean blood pressure without ventricular tachycardia in dogs at a dose of 6 mg/kg expt-2; format: functional, Canis lupus familiaris
Canis familiaris [29] = assay: Tested for mean blood pressure without ventricular tachycardia in dogs at a dose of 3 mg/kg expt-1; format: functional, Canis lupus familiaris
Canis familiaris [30] = assay: Tested for mean blood pressure without ventricular tachycardia in dogs at a dose of 3 mg/kg expt-3; format: functional, Canis lupus familiaris
Canis familiaris [31] = organism: Canis familiaris; assay: Relative effect on exacerbation of ventricular tachycardia in dogs; no exacerbation of VT; format: functional, organism-based; conditions: Canis lupus familiaris; Cardiac ventricle
Canis familiaris [32] = assay: Tested for mean blood pressure without ventricular tachycardia in dogs at a dose of 6 mg/kg expt-1; format: functional, Canis lupus familiaris
Canis familiaris [33] = organism: Canis familiaris; assay: Relative effect on normal sinus rate in dogs;NC =no change in normal sinus rate.; format: functional, organism-based; conditions: Canis lupus familiaris
Canis familiaris [34] = assay: Tested for mean blood pressure without ventricular tachycardia in dogs at a dose of 6 mg/kg; format: functional, Canis lupus familiaris
Canis familiaris [35] = organism: Canis familiaris; assay: Relative effect on abolition of ventricular tachycardia in dogs;abolition of VT; format: functional, organism-based; conditions: Canis lupus familiaris; Cardiac ventricle
Canis familiaris [36] = organism: Canis familiaris; assay: Relative effect on exacerbation of ventricular tachycardia in dogs; No exacerbation of VT; format: functional, organism-based; conditions: Canis lupus familiaris; Cardiac ventricle
Canis familiaris [37] = assay: Tested for mean blood pressure without ventricular tachycardia in dogs at a dose of 3 mg/kg; format: functional, Canis lupus familiaris
Canis familiaris [38] = assay: Relative effect on mean blood pressure in dogs; Slight 8% increase im mean BP; format: functional, organism-based; conditions: Canis lupus familiaris
Canis familiaris [39] = assay: Tested for Norman sinus rhythm in dogs at a dose of 3 mg/kg; format: functional, Canis lupus familiaris
Canis familiaris [40] = organism: Canis familiaris; assay: Relative effect on mean blood pressure in dogs;NC=no change in mean BP; format: functional, organism-based; conditions: Canis lupus familiaris
Canis familiaris [41] = organism: Canis familiaris; assay: Relative effect on abolition of ventricular tachycardia in dogs; format: functional, organism-based; conditions: Canis lupus familiaris; Cardiac ventricle
Canis familiaris [42] = organism: Canis familiaris; assay: Relative effect on mean blood pressure in dogs; Moderate change in mean BP; format: functional, organism-based; conditions: Canis lupus familiaris
Canis familiaris [43] = organism: Canis familiaris; assay: Relative effect on normal sinus rate in dogs;Slight decrease; format: functional, organism-based; conditions: Canis lupus familiaris
Canis familiaris [44] = organism: Canis familiaris; assay: Relative effect on normal sinus rate in dogs;Slight increase; format: functional, organism-based; conditions: Canis lupus familiaris
Canis familiaris [45] = organism: Canis familiaris; assay: Relative effect on exacerbation of ventricular tachycardia in dogs; Exacerbation of VT present; format: functional, organism-based; conditions: Canis lupus familiaris; Cardiac ventricle
Canis familiaris [46] = organism: Canis familiaris; assay: Relative effect on slowing of ventricular tachycardia in dogs;slowing of VT present; format: functional, organism-based; conditions: Canis lupus familiaris; Cardiac ventricle
Canis familiaris [47] = assay: Tested for Norman sinus rhythm in dogs at a dose of 6 mg/kg expt-1; format: functional, Canis lupus familiaris
Canis familiaris [48] = assay: Tested for mean blood pressure with ventricular tachycardia in dogs at a dose of 6 mg/kg expt-2; format: functional, Canis lupus familiaris
Canis familiaris [49] = assay: Tested for Norman sinus rhythm in dogs at a dose of 3 mg/kg expt-2; format: functional, Canis lupus familiaris
Canis familiaris [50] = assay: Tested for Norman sinus rhythm in dogs at a dose of 3 mg/kg expt-1; format: functional, Canis lupus familiaris
Canis familiaris [51] = assay: Tested for Norman sinus rhythm in dogs at a dose of 6 mg/kg expt-2; format: functional, Canis lupus familiaris
Canis familiaris [52] = organism: Canis familiaris; assay: Relative effect on mean blood pressure in dogs;NC = no change in mean BP; format: functional, organism-based; conditions: Canis lupus familiaris
Canis familiaris [53] = assay: Tested for mean blood pressure with ventricular tachycardia in dogs at a dose of 6 mg/kg expt-1; format: functional, Canis lupus familiaris
Canis familiaris [54] = assay: Tested for mean blood pressure with ventricular tachycardia in dogs at a dose of 3 mg/kg expt-2; format: functional, Canis lupus familiaris
Canis familiaris [55] = assay: Tested for mean blood pressure with ventricular tachycardia in dogs at a dose of 3 mg/kg expt-1; format: functional, Canis lupus familiaris

Structure (SMILES)	Effect (Canis familiaris [1])	NSR (Canis familiaris [4])	MBP (Canis familiaris [5])	MBP (Canis familiaris [6])	MBP (Canis familiaris [7])	MBP (Canis familiaris [8])	MBP (Canis familiaris [9])	Activity (Canis familiaris [10]) [beats min-1]	MBP (Canis familiaris [11])	Effect (Canis familiaris [12])	Activity (Canis familiaris [13]) [beats min-1]	Effect (Canis familiaris [14])	NSR (Canis familiaris [15])	NSR (Canis familiaris [19])	NSR (Canis familiaris [20])	MBP (Canis familiaris [26])	MBP (Canis familiaris [28])	MBP (Canis familiaris [29])	MBP (Canis familiaris [32])	Effect (Canis familiaris [33])	further results
OC1(O)C2C[Se]CC1CN(Cc1ccccc1)C2	exacerbation of VT	150	60	130	130	125	125	300	40	No exacerbation	255	exacerbation of VT	150	155	155						Effect (Canis familiaris [2]): inactive; Effect (Canis familiaris [3]): inactive; Activity (Canis familiaris [16]): 280 beats min-1; Activity (Canis familiaris [17]): 320 beats min-1; MBP (Canis familiaris [18]): 70
c1ccc(CCN2CC3C[Se]CC(C3)C2)cc1		168													150	85	150	128	125		NSR (Canis familiaris [21]): 155; Effect (Canis familiaris [22]): mod; NSR (Canis familiaris [23]; 6 mg/kg): 165 and 150 and 155; Effect (Canis familiaris [24]): abolition of ventricular tachycardia; MBP (Canis familiaris [25]): 85; Effect (Canis familiaris [27]): inactive; MBP (Canis familiaris [30]): 150; Effect (Canis familiaris [31]): No exacerbation
c1ccc(CN2CC3C[Se]CC(C3)C2)cc1																				No change	NSR (Canis familiaris [23]): 160; MBP (Canis familiaris [34]): 125; Effect (Canis familiaris [35]): abolition of ventricular tachycardia; Effect (Canis familiaris [36]): No exacerbation; MBP (Canis familiaris [37]): 126; Effect (Canis familiaris [38]): Slight; NSR (Canis familiaris [39]): 160
c1ccc([C@H]2N[C@@H](c3ccccc3)C3C[Se]CC2C3)cc1	exacerbation of VT	150	20	82	80	125	125	270	30		280	exacerbation of VT	140	145	150						Effect (Canis familiaris [40]): No change; Effect (Canis familiaris [41]): exacerbation of VT; Effect (Canis familiaris [42]): mod; Effect (Canis familiaris [43]): Slight; Effect (Canis familiaris [44]): Slight
CCN(CC)CC(=O)Nc1c(C)cccc1C [LIDOCAINE]										inactive						70	72	110	112	inactive	Effect (Canis familiaris [45]): Active; Effect (Canis familiaris [46]): Active; NSR (Canis familiaris [47]): 160; MBP (Canis familiaris [48]): 52; NSR (Canis familiaris [49]): 150; NSR (Canis familiaris [50]): 165; NSR (Canis familiaris [51]): 150; Effect (Canis familiaris [52]): inactive; MBP (Canis familiaris [53]): 40; MBP (Canis familiaris [54]): 75; MBP (Canis familiaris [55]): 40
